{"source": "patent US12629356B2", "about": "“Expansion of tumor infiltrating lymphocytes with potassium channel agonists and therapeutic uses thereof” (Iovance Biotherapeutics, Inc., priority 2017, dated 2026)", "key": {"[1]": {"system": "normal donor PBMC lines and TIL lines from melanoma tumors", "assay": "Kinetic expression of KCa3.1 after activation with anti-CD3 and anti-CD28 with or without SKA-31 (flow cytometry)", "format": "cell-based, human", "conditions": "50 nM SKA-31; PBMCs and melanoma TILs stimulated with anti-CD3 and anti-CD28; day 1, 3 and 7", "method": "To study kinetic expression of KCa3.1, wo normal donor PBMC lines and three TIL lines from melanoma tumors were activated with anti-CD3 and anti-CD28 with the KCa3.1 agonist SKA-31 (Formula (2)). PBMCs and TILs at day 0 (baseline) were used as controls for KCa3.1 expression. Normal donor PBMCs and three TIL lines (M004, M10^11, and M1023) were thawed and cultured in TIL culture media (TIL CM) containing RPMI 1640 (Thermo Fisher Scientific, Waltham, MA, USA), 1 mM Glutamax (Thermo Fisher Scientific), 1 mM pyruvate (Thermo Fisher Scientific), 50 μM 2-mercaptoethanol (Thermo Fisher Scientific), and 1× Pen-Strep (Thermo Fisher Scientific), and 10% human AB serum (Gemini Bio-Products, West Sacramento, CA, USA) with IL-2 (6000 IU/mL) (CellGenix Inc., Portsmouth, NH, USA). On the next day, PBMCs were activated with anti-CD3 (Clone CLB-T3/4.E, Cell Sciences) ([…]) and anti-CD28 (Clone 28.2, BioLegend, San Diego, CA, USA) (500 ng/mL) with or without 50 nM SKA-31 (Sigma-Aldrich Co., St. Louis, MO, USA). […] Cells were harvested on day 1, 3, and 7 following activation, stained with anti-CD3 (clone SP34-2, BD Biosciences), anti-CD8 (clone RPA-T8, BioLegend), anti-KCa3.1 (Polyclonal, Alomone Lab), and AmCyan (Thermo Fisher Scientific), and analyzed by flow cytometry using a BD FACS CANTO II system."}, "[2]": {"system": "Melanoma TIL lines", "assay": "Fold expansion of melanoma TIL lines in 14-day REP with or without SKA-31", "format": "cell-based, human", "conditions": "ten melanoma TIL lines; 50 mM SKA-31 (so in the source); day 14 of REP; p=0.002", "method": "(§1) Melanoma TIL lines were propagated using a REP protocol for 14 days with or without the KCa3.1 agonist SKA-31 (Formula (2)). Ten TIL lines (M004, M10^11, M1017, M1020, M1021, M1025, M1030, M1034, M1036, and M1045) were propagated with REP with anti-CD3 OKT-3 antibody (Miltenyi Biotech) (30 ng/mL) using irradiated PBMC feeder cells at ratio of TILs to feeder cells of 1 to 100 in G-REX 24 well plates (Wilson Wolf Manufacturing). Approximately 1×10^6 TILs were used per G-REX 24 well on day 0 in 8 mL of TIL REP media (TIL CM and Aim V media (Thermo Fisher Scientific) at a 1 to 1 ratio) with or without 50 mM of SKA-31. On day 2, the cultures were supplemented with IL-2 (6000 IU/mL). Half of the media was replaced with fresh AIMV media on day 5 with or without 50 mM SKA-31. The REP cultures were supplemented with IL-2 (3000 IU/mL) on day 9 and 12 respectively. On day 14, TTLs were counted and calculated for fold expansion."}, "[3]": {"system": "Melanoma TIL lines", "assay": "Phenotyping of melanoma TILs (CD27, CD28) at end of REP with or without SKA-31", "format": "cell-based, human", "conditions": "ten melanoma TIL lines, end of 14-day REP, vs TILs without SKA-31", "method": "as §1\nTen melanoma TIL lines were expanded with the REP protocol for 14 days with or without the KCa3.1 agonist SKA-31 (Formula (2)) as in Example 2. At the end of each REP, TILs were harvested and phenotyped with anti-CD3 (clone SP34-2, BD Biosciences), anti-CD28 (clone CD28.2, BD biosciences), and anti-CD27 (M-T271, BD Biosciences) antibodies."}, "[4]": {"system": "pre-REP TILs from tumor fragments", "assay": "CCR7+ and CD25+ expression in pre-REP TILs grown with IL-2 alone or IL-2 with SKA-31 (flow cytometry)", "format": "cell-based", "conditions": "vs no treatment", "method": "Three tumors (kidney, estrogen receptor positive (ER^+) breast, and melanoma) were grown with either IL-2 alone or IL-2 with SKA-31 […] to evaluate the performance of a KCa3.1 agonist in the pre-REP stage. The resected tumor samples were cut into 3-5 mm^2 fragments. Four to eight tumor fragments were placed into GREX-10 flask containing TIL CM (previously described) with IL-2 (6000 IU/mL) with or without 100 nM SKA-31. The culture was supplemented with IL-2 every 5 days until harvested. After three weeks, TIL was collected, counted, and stained with anti-CD8 (clone RPA-T8, BioLegend), anti-CD4 (OKT-4, BioLegend), anti-CCR7 (BioLegend G043H7), or AmCyan (Thermo Fisher Scientific), and analyzed by flow cytometry using a BD FACS CANTO II system. The results of CCR7 expression in the three tumor fragments are presented in FIG. 13, with representative flow cytometry results for one of the tumors presented in FIG. 14.\nFurther evidence that SKA-31 enhances expression of CD25 and CCR7 was also obtained. Pre-REP TIL were grown with either IL-2 (6000 IU/mL) alone or with SKA-31 and were analyzed after 21 days (n=14; tumor types: breast cancer (8), melanoma (3), kidney (2), ovarian (1)). CCR7^+ expression was assessed by flow cytometry in CD4^+ (FIG. 15, top) and CD8^+subsets (FIG. 15, bottom). CD25^+expression was assessed by flow cytometry in CD4^+(FIG. 17, top) and CD8′ subsets (FIG. 17, bottom) (n=16, breast cancer (8), melanoma (3), kidney (3), ovarian (2)). In both cases, p values represent the difference between no treatment and SKA-31 using student's unpaired T test, and p values<0.05 are considered as statistically significant."}, "[5]": {"system": "pre-REP TILs from ovarian and breast cancer tumor fragments", "assay": "Absolute cell counts of pre-REP TILs from ovarian and breast tumor fragments with or without SKA-31", "format": "cell-based", "conditions": "50 nM SKA-31 with IL-2, three weeks, vs IL-2 alone", "method": "Tumor fragments from ovarian and breast cancer (triple positive, ER^+/PR^+/HER2^+) tumors were grown in a pre-REP stage with either IL-2 alone or IL-2 with SKA-31 (Formula (2)) at a concentration of 50 nM. The resected tumor samples were cut into 3-5 mm^2 fragments. Four to eight tumor fragments were placed into GREX-10 flasks containing TIL CM (previously described) with IL-2 (6000 IU/mL). The culture was supplemented with IL-2 every 5 days until harvested. After three weeks, TILs were collected, counted, and stained with anti-CD8 antibody (clone RPA-T8, BioLegend), anti-CD4 antibody (OKT-4, BioLegend), anti-CD3 antibody (clone SP34-2, BD Biosciences), and AmCyan (Thermo Fisher Scientific), and analyzed by flow cytometry using a BD FACS CANTO II system."}, "[6]": {"system": "TILs co-cultured with melanoma tumor cells", "assay": "IFN-γ release (ELISA) from TILs prepared with and without SKA-31 co-cultured with melanoma tumor cells", "format": "cell-based", "conditions": "24 hours co-culture, 3:1 E:T ratio, vs TILs prepared without SKA-31", "method": "FIG. 21 illustrates the results of IFN-γ release as measured by enzyme-linked immunosorbent assay (ELISA). TILs prepared with and without SKA-31 were co-cultured with melanoma tumor cells for 24 hours at a TIL:melanoma cell ratio of 3:1 (i.e., a 3:1 effector:target or E:T ratio). Blocking of the TCR MHC-I was performed using 80 μg/mL of antibody clone W6/32 (BioLegend)."}, "[7]": {"system": "melanoma cells", "assay": "Tumor cell killing by TILs prepared with and without SKA-31 (caspase-3 marker)", "format": "cell-based", "conditions": "different E:T ratios"}, "[8]": {"conditions": "breast (ER+/PR+/HER2+) tumor fragments"}}}
{"molecule": "Nc1nc2c(ccc3ccccc32)s1", "note": "[SKA-31, naphtho[1,2-d]thiazol-2-ylamine]", "values": [{"measurement": "KCa3.1 expression", "setting": "[1]", "value": "did not alter KCa3.1 expression"}, {"measurement": "expansion of TILs in REP relative to control without KCa3.1 agonist", "setting": "[2]", "value": 1.42, "unit": "fold"}, {"measurement": "CD8+CD27+CD28+ T cell subset", "setting": "[3]; p=0.002", "value": "greater expansion"}, {"measurement": "CD8+CD27+ T cell subset", "setting": "[3]; p=0.04", "value": "greater expansion"}, {"measurement": "CD8+CD28+ T cell subset", "setting": "[3]; p=0.04", "value": "greater expansion"}, {"measurement": "CCR7+ expression in CD4+ and CD8+ subsets", "setting": "[4]; pre-REP TIL, IL-2 6000 IU/mL with SKA-31, 21 days, n=14 tumors", "value": "enhances"}, {"measurement": "CD25+ expression in CD4+ and CD8+ subsets", "setting": "[4]; pre-REP TIL, IL-2 6000 IU/mL with SKA-31, 21 days, n=16 tumors", "value": "enhances"}, {"measurement": "CCR7+ expression in CD4+ and CD8+ TILs", "setting": "[4]; three tumor fragments (kidney, ER+ breast, melanoma), pre-REP, 100 nM SKA-31 with IL-2, three weeks", "value": "increased"}, {"measurement": "absolute cell counts, CD3^mCD4^m TILs", "setting": "[5]; [8]", "value": "increased"}, {"measurement": "absolute cell counts, CD3^mCD8^m TILs", "setting": "[5]; [8]", "value": "increased"}, {"measurement": "absolute cell counts, CD3^mCD8^m TILs", "setting": "[5]; ovarian tumor fragments", "value": "increased"}, {"measurement": "IFN-γ release", "setting": "[6]; one TIL cell line", "value": "statistically significant increase"}, {"measurement": "IFN-γ release", "setting": "[6]; second TIL cell line", "value": "no adverse effect"}, {"measurement": "tumor killing (caspase-3)", "setting": "[7]; M1032 TIL line", "value": "no adverse effects"}, {"measurement": "tumor killing (caspase-3)", "setting": "[7]; M1041 TIL line", "value": "no adverse effects"}]}
